Assays:
Test in all cases: Inhibition of bacterial growth in broth culture, CFU counting
Format in all cases: cell-based
[1] = test system: Escherichia coli 0.94 (A); settings: 1000 μM; Escherichia coli 0.94 from pig gastrointestinal content; counting after 24 hours at 37° C.
Source text: (§1) The following bacteria were isolated from pig gastrointestinal content: Escherichia coli 0.94 (A), Escherichia coli 0.96 (B), Klebsiella pneumoniae (C), Salmonella typhimurium pF3127 (D), Salmonella enteritidis pF1338 (E), Enterococcus faecalis (F), Enterococcus faecium (G), Staphylococcus hyicus (H), Lactobacillus salivarius (I) and Lactobacillus acidophilus 3 (J). Their identities were confirmed by microscopic examination after gram staining and biochemical testing using the appropriate API system. Test strains were maintained in tryptic soy broth (named BTS; […] Overnight cultures of the test organisms were diluted in tryptic soy broth to the final concentration used for inoculation of the assay. Pure bacteria were counted on tryptic soy agar (Merck, Darmstadt, Germany) after aerobical incubation at 37° C. during 24 hours. […] Sterilized nutrient broth was prepared using tryptic soy broth (Merck, Darmstadt, Germany), and 4.4 ml of it was added to each test tube. 500 μl of each of the dilutions and 100 μl of bacteria, diluted to the appropriate inoculum size (2×10^4 to 10^5 CFU/ml), was added to the test tubes. […] Becton […], France). The final concentration of each derivative was […]. The tubes and the microtiter plates were incubated during 24 to 48 hours (depending of the bacteria tested) at 37° C. and under agitation. Inhibition of growth was determined by bacterial counting after 24 hours of incubation. […] All bacterial counts were realized with two replicate plates. In general, each assay was performed in two replicates. The reduction of bacterial growth was determined by subtracting the number of the bacteria of the test culture after 24 hours from the number of bacteria of the control culture. The colonies developed after incubation were counted, and the inhibitory effect was calculated according to Rico-Munoz and Davidson, J.

[2] = test system: Lactobacillus salivarius (I); settings: 1000 μM; Lactobacillus salivarius from pig gastrointestinal content; counting after 24 hours at 37° C.
Source text: as §1

[3] = test system: Escherichia coli 0.96 (B); settings: 1000 μM; Escherichia coli 0.96 from pig gastrointestinal content; counting after 24 hours at 37° C.
Source text: as §1

[4] = test system: Salmonella typhimurium pF3127 (D); settings: 1000 μM; Salmonella typhimurium pF3127 from pig gastrointestinal content; counting after 24 hours at 37° C.
Source text: as §1

[5] = test system: Salmonella enteritidis pF1338 (E); settings: 1000 μM; Salmonella enteritidis pF1338 from pig gastrointestinal content; counting after 24 hours at 37° C.
Source text: as §1

[6] = test system: Klebsiella pneumoniae (C); settings: 1000 μM; Klebsiella pneumoniae from pig gastrointestinal content; counting after 24 hours at 37° C.
Source text: as §1

Enterococcus faecium (G) = settings: 1000 μM; Enterococcus faecium from pig gastrointestinal content; counting after 24 hours at 37° C.
Source text: as §1

[7] = test system: Staphylococcus hyicus (H); settings: 1000 μM; Staphylococcus hyicus from pig gastrointestinal content; counting after 24 hours at 37° C.
Source text: as §1

[8] = test system: Enterococcus faecalis (F); settings: 1000 μM; Enterococcus faecalis from pig gastrointestinal content; counting after 24 hours at 37° C.
Source text: as §1

Substance	Percentage of inhibition of growth of bacterial strain A [1]	Percentage of inhibition of growth of bacterial strain I [2]	Percentage of inhibition of growth of bacterial strain B [3]	Percentage of inhibition of growth of bacterial strain D [4]	Percentage of inhibition of growth of bacterial strain E [5]	Percentage of inhibition of growth of bacterial strain C [6]	Percentage of inhibition of growth of bacterial strain G (Enterococcus faecium (G))	Percentage of inhibition of growth of bacterial strain H [7]	Percentage of inhibition of growth of bacterial strain F [8]
Curcumin diphosphate ammonium salt [derivative 2]	35 ± 41%	64 ± 50%	47 ± 28%	40 ± 72%	30 ± 34%	25 ± 5%	13 ± 6%	2 ± 7%	
curcumindipalmitate [Example 1]	62 ± 0.3%	2%	59 ± 17%	33 ± 29%	14 ± 13%	12 ± 4%		−4 ± 42%	38 ± 34%
